Assays:
Type in all cases: cell-based, human
[1] = tested on: bone marrow organoids; assay: TGFβ-induced fibrosis of bone marrow organoids (immunofluorescence, qRT PCR); conditions: for TGFβ-induced collagen deposition / TGFβ-induced αSMA expression: bone marrow organoids stimulated with TGFβ, N=4 and 3 respectively, Kruskal-Wallis with multiple comparisons
Source text: FIG. 7: Treatment of organoids with TGFβ induced fibrosis of the organoids, modelling bone marrow fibrosis seen in patients. […] Increase of signal in these images is indicative of treatment inducing classic markers of fibrosis. […] Finally, we confirmed the utility of this model to screen for potential inhibitors of bone marrow fibrosis. […] (N=4 and 3 respectively, significance testing with Kruskal-Wallis with multiple comparisons).
To model myelofibrosis (MF), we treated bone marrow organoids with Transforming Growth Factor β (TGFβ, Peprotech) at various concentrations for 72 hours. Treated organoids were maintained in this media before collection via pasteurette and fixation for immunofluorescence (whole organoids or embedded sections), or centrifugation for RNA extraction and subsequent quantitative Real Time Polymerase Chain Reaction (qRT PCR assessment of changes in gene expression). RNA extraction was performed using the Qiagen RNAEasy micro kit to the manufacturer's instructions.
qRT-PCR was performed on an Applied Biosystems 7500 Fast Real Time PCR System. Primers were obtained from Integrated DNA Technologies (IDT) as pre-validated PrimeTime qPCR primers. Reactions were prepared from lug of isolated RNA converted to cDNA with the High Capacity cDNA Reverse Transcription Kit (Applied Biosystems) under manufacturer recommended thermal cycling conditions. Synthesised cDNA was diluted 5-fold and stored at −20° C. until required.
A master mix was prepared for each qPCR reaction which was made up of 10 μl TaqMan® Universal Primer MasterMix (thermos), 1 μl of forward and reverse primers, and 2 μl of cDNA at a final concentration of 5 ng/mL. Calculations for fold changes in expression were performed using the ΔΔCT method, with human GAPDH used as a housekeeping gene, and undifferentiated iPSC used as controls for expression levels.
Immunofluorescence was performed using a Zeiss LSM880 confocal microscope (25×0.8 LD LCI plan apo 0.8 dual immersion objective). Samples were prepared first by fixation in 10% formalin, before 3×5 min successive washes with PBS. Samples were then blocked overnight in a detergent blocking solution comprised of 2% goat serum (Thermo), 1% Bovine Serum Albumin (BSA) in 50 mL of PBS. 250 μl of Triton X100 and Tween-20 (Sigma) were added, as well as 500 μl sodium deoxycholate (Sigma) to permeabilise samples and encourage antibody preparation. Primary antibody incubations were performed overnight at 4° C., before 4×5-minute successive washes in PBS. Samples were then incubated overnight once more at 4° C. in secondary antibody mixes: DAPI for nuclear labelling, Alexa-488, Alxea-568, and Alexa-647 (Thermo) depending on the species mix of antibodies present.

[2] = tested on: MF-patient organoids; assay: Bone marrow organoids engrafted with CD34+ cells from patients with myelofibrosis, screen of potential therapies (immunofluorescence of paraffin embedded sections); conditions: organoids seeded with MF patient cells for 14 days, treatment at day 7 post engraftment, 0.1 and 1 uM, vs DMSO treated
Description: FIG. 12: Organoids engrafted with CD34^+ cells from patients with myelofibrosis can be used to screen potential therapies in a patient specific approach. Bone marrow organoids were seeded with cells from patients with myelofibrosis for 14 days in total, with pharmacological interventions staged at day 7 post engraftment. […] Samples were also treated with the inhibitor SB431542, the BET bromodomain inhibitor JQ1, and the current clinical treatment for myelofibrosis ruxolitinib (at 0.1 and 1 uM respectively). […] (B) Representative immunofluorescence imaging of paraffin embedded sections.
Cells were isolated from cryopreserved peripheral blood or bone marrow mononuclear cells and stained with CellVue Claret Far Red Fluorescent Cell Linker Mini Kit for General Membrane Labeling (Sigma Aldrich, Cat #MINCLARET-1KT) following the instructions provided by the manufacturer. Organoids were seeded with 5000 cells per wells and cultured for 8-14 days in StemPro. On collection day, organoids were fixed for imaging or digested for assessment by flow cytometry or RNA extraction and qRT PCR.
Sections were blocked using 2% Goat Serum (Thermo Fisher Scientific, Cat #31872) 1% Bovine Serum Albumin (BSA) (Sigma, Cat #A9418) prior to primary antibody labelling with antibody diluted in 1% BSA, sequential PBS washes, and finally secondary labelling with AlexaFluor conjugates. […]

[3] = tested on: organoid endothelium; assay: Addition of VEGFC to the organoid growth factor cocktail, specialisation of organoid endothelium
Source text: FIG. 4: Addition of VEGFC induces specialisation of organoid endothelium to resemble bone marrow sinusoidal endothelium. The protocol thus far generated an organoid producing the key lineages of the central human bone marrow. However, bone marrow sinusoidal endothelium, is a highly specialised for regulating haematopoeitic cell behaviours.
FIG. 5: VEGFC induces development of CD34+ sinusoidal vascular network in organoids. […] Immunofluorescence images show significant staining of the vessels in the VEGFA+C treated sample when compared to VEGFA. (B) Close association of CD41+ megakaryocytes with vessels in the organoids. […] (C) CD41+ megakaryocytes are shown forming pro-platelet extensions in sections of BM organoids.
Once fully polymerised, 3D cultures were supplemented in Phase III sprouting medium which was comprised of APELII medium supplemented with 5% Foetal Bovine Serum (FBS), 5 U/mL Heparin Sulfate, 50 ng VEGFA, 10 ng each Interleukin 3 (IL3) and Interleukin 6 (IL6), as well as 25 ng each of SCF, Flt3, Thrombopoietin (TPO), Erythropoietin (EPO), Granulocyte Colony Stimulating Factor (G-CSF) (Stem Cell Technologies), FGF2, and BMP4. Cells were maintained in this media formulation until d12, with media changes every 72 hours. From d5 onwards, media changes are performed as 60:40 splits fresh: conditioned medium. […]

TGFβ was tested, and the “expression of α-smooth muscle actin (α-SMA) and collagen I (COL1A1), staining” value ([1]; 72-hours of stimulation, compared to an untreated control) was “increase in the expression” and the “canonical fibrosis markers by qRT PCR” value ([1]; various concentrations of TGFβ for 72 hours) was “dose dependent increase”.

In the case of `NC(=O)c1ccc(-c2nc(-c3ccc4c(c3)OCO4)c(-c3ccccn3)[nH]2)cc1` [SB431542], the TGFβ-induced collagen deposition [1] is reported as “significantly reduced” and the “TGFβ-induced αSMA expression” value [1] is reported as “significantly reduced”.

`Cc1sc2c(c1C)C(c1ccc(Cl)cc1)=N[C@@H](CC(=O)OC(C)(C)C)c1nnc(C)n1-2` [JQ1] was tested, and the TGFβ-induced collagen deposition [1] was “significantly reduced”, the “TGFβ-induced αSMA expression” value [1] was “significantly reduced” and the “COL1A1 level, immunofluorescence” value [2] was “significant reductions”. For the same molecule, the “αSMA level, immunofluorescence” value [2] was “significantly reduced”.

B1: VEGFC: Vascular Endothelial Growth Factor C (Stem Cell Technologies), growth factor supplemented into medium (protein, UniProt P49767 112-227, looked up)
Vascular endothelial growth …: AHYNTEILKSIDNEWRKTQCMPREVCIDVGKEFGVATNTFFKPPCVSVYRCGGCCNSEGLQCMNTSTSYLSKTLFEITVPLSQGPKPVTISFANHTSCRCMSKLDVYRQVHSIIRR
With B1 the “CD34 expression of organoid vessels, immunofluorescence” value ([3]; VEGFA+C treated compared to VEGFA) was “induces vessels in the organoid that maintain the expression of CD34” and the “expression of adhesion molecules and hematopoietic regulatory factors (VEGFR3, VCAM1, VLA4, FGF4, CXCR4) in endothelial cells” value ([3]; VEGFC added to VEGFA, compared to VEGFA or VEGFC alone) was “improved the expression”.
